A word on the Ki: it is the equilibrium dissociation constant of an inhibitor or competing ligand from its target.

In experiment [1] the target is T1, NMDA receptor glycine site (Rattus norvegicus, UniProt P35439).
T1 construct: The rat brain membranes used in the experiments were obtained from Analytical Biological Services Inc; tissue Analytical Biological Services Inc; host or cells: rat brain membranes (cerebral cortex and hippocampus, male Sprague Dawley rats)
As to the kind of experiment: Test A: Inhibition of binding of [3H]-MDL105,519 to brain membranes. Conditions: displacement of 1.2 nM [3H]MDL105,519, brain membranes. From the text:
Test A: Inhibition of Binding of [^3H]-MDL105,519:
Binding of compounds to the NMDA receptor glycine site may be assessed by measuring the ability of test compounds to inhibit the binding of tritiated MDL105,519 to brain membranes bearing the receptor.
Briefly, fresh brain tissue including cerebral cortex and hippocampus from male Sprague Dawley rats was homogenized in 0.32 M sucrose and centrifuged at low speed to separate cellular membranes from other cellular components. The membranes were then washed 3 times using deionized water, followed by treatment with 0.04% Triton X-100. Finally, membranes were washed six times in 50 mM Tris citrate buffer, pH 7.4, and frozen at −80° C. until use.
[^3H]MDL105,519 (72 Ci/mmol) was purchased from Amersham. Cold MDL105,519 was purchased from Sigma/RBI. Binding assays were performed substantially in accordance with the protocol of B. M. Baron et al., J. Phannacol. […] On the day of the experiment, brain membranes were thawed at room temperature and suspended in 50 mM tris acetate buffer, pH 7.4 (“TAB”). Seventy-five micro grams per milliliter protein (by using the BioRad dye) were used for competition binding. The experiments were carried out using 96-well plates. […] Non specific binding was determined by using 100 μM of unlabeled MDL105,519. […] After incubation, unbound [^3H]MDL105,519 was removed by filtration onto GF/B Unifilter plates using a Packard harvester. Filters were washed four times with ice cold TAB (total of 1.2 mL buffer). The plates were dried overnight at room temperature and bound radioactivity was measured on a Packard TopCount after the addition of 45 μL per well of the MICROSCINT O.
Human Brain Membranes: Human brain membranes were obtained from Analytical Biological Services Inc., and assays were performed as described for rat membranes.
Data analysis: Data was analyzed using a Microsoft Excel spreadsheet and GraphPad Prizm software and potency of compounds is expressed as the Ki (nM).

Experiment [2] deals with CCI rats (thermal hyperalgesia). As to the kind of experiment: Test C: Neuropathic pain model (Chronic Constriction Injury), thermal hyperalgesia paw-withdrawal test. Conditions: oral. The experiment is classed as in vivo, rat. From the text:
Test C: Neuropathic Pain Model (Chronic Constriction Injury): […]

For the compound `Cc1c(Cn2nc(O)c3[nH]c4cc(Cl)ccc4c(=O)c3c2=O)sc2ccccc12`, the affinity in experiment [1] corresponds to a Ki of 161 nM. The same measure, in the same setting: next, `Cc1[nH]cnc1Cn1nc(O)c2nc3cc(Cl)ccc3c(O)c2c1=O`: 434 nM.

`Cc1cc(Cn2nc(O)c3[nH]c4cc(Cl)ccc4c(=O)c3c2=O)c(C)o1` [Ex. 1, 7-Chloro-4-hydroxy-2-[3-(2,5-dimethyl)furanylmethyl]-1,2,5,10-tetrahydropyridazino[4,5-b]quinoline-1,10-dione] registered a Ki in experiment [1] of 24.8 nM.

On to `Cc1ccsc1Cn1nc(O)c2[nH]c3cc(Cl)ccc3c(=O)c2c1=O` [Ex. 2, 7-Chloro-4-hydroxy-2-[2-(3-methyl)thienylmethyl]-1,2,5,10-tetrahydropyridazino[4,5-b]quinoline-1,10-dione], for which the “Test C % Inh. (percent decrease of hyperalgesia) at MED” value in experiment [2] (at the MED, compared to vehicle-treated animals) is −15%. The “Test C MED (minimum effective dose)” value in experiment [2] (three times daily for 5 days, dose giving statistically significant decrease in hyperalgesia) amounted to 30 mg/kg/day.

With `Cc1occc1Cn1nc(O)c2[nH]c3cc(Cl)ccc3c(=O)c2c1=O` [Ex. 4, 7-Chloro-4-hydroxy-2-[(2-methyl(furan-3-yl))methyl]-1,2,5,10-tetrahydropyridazinol[4,5-b]quinonline-1,10-dione], the Ki in experiment [1] was found to be 28 nM.

Compound `O=c1c2ccc(Cl)cc2[nH]c2c(O)nn(Cc3ccc(-c4ccccc4Cl)o3)c(=O)c12` [Ex. 6, 7-Chloro-4-hydroxy-2-{[5-(2-chlorophenyl)(2-furyl)]methyl}-1,2,5,10-tetrahydropyridazino[4,5-b]quinoline-1,2-dione] registered an inhibition constant Ki in experiment [1] of 298 nM. The same measure, in the same setting: next, `COC(=O)c1ccc(Cn2nc(O)c3[nH]c4cc(Cl)ccc4c(=O)c3c2=O)o1` [Ex. 8, 7-Chloro-4-hydroxy-2-(5-methoxycarbonyl(furan-2-yl)methyl)-1,2,5,10-tetrahydropyirdazino[4,5-b]quinolin-1,10-dione]: 72 nM; `Cc1ccc(Cn2nc(O)c3[nH]c4cc(Cl)ccc4c(=O)c3c2=O)s1` [Ex. 9, 7-Chloro-4-hydroxy-2-(5-methylthien-2-ylmethyl)-1,2,5,10-tetrahydropyridazino[4,5-b]quinoline-1,10-dione]: 28 nM.

These data come from patent US6730675B2 (AstraZeneca AB, priority 1999, dated 2004).
